Legend:
[1] = tested on: immortalized murine bone marrow-derived macrophages; assay: CellTiter-Blue cell viability assay; format: cell-based; settings: 4 h in Opti-MEM, tested 625 nM to 40 μM
Method: Next, the probes were examined in cell culture experiments. First, we determined the cytotoxicity of probes 1–4 at different concentrations between 625 nM and 40 μM in immortalized murine bone marrow-derived macrophages (Figure 4).
Figure 4 Cell viability of immortalized murine bone marrow-derived macrophages after treatment with probes 1–4. Cells were treated with the probes at different concentrations in Opti-MEM for 4 h. Cell viability was assessed using the CellTiter-Blue cell viability assay.
NLRP3 KO immortalized murine bone marrow-derived macrophages overexpressing mouse NLRP3-FLAG and human ASC-mCerulean were seeded in 96 well plates and incubated overnight. Cells were treated with the fluorescent probes (1 and 2) and the biotin-tagged probes (3 and 4) at different concentrations in Opti-MEM for 4 h. Subsequently, cell viability was assessed using CellTiter-Blue® cell viability assay according to the manufacturer's instructions.

NLRP3 inflammasome = assay: IL-1β release (HTRF) after LPS priming and nigericin, NLRP3 inflammasome; format: cell-based, murine; settings: for effect on cytokine (IL-1β) release: 20 μM
Method: The following experiments were performed with probes 1–4 in immortalized murine bone marrow-derived macrophages. Nigericin, an antibiotic carboxylate ionophore, was used as the activator of the NLRP3 inflammasome, owing to its ability to induce a potassium efflux. […] For this purpose, AIM2 was stimulated by transfection with poly(deoxyadenylic-deoxythymidylic) acid [poly(dA:dT)] after pretreatment with LPS. A Homogeneous Time Resolved Fluorescence (HTRF) assay was employed to determine the release of IL-1β (Figure 5).
All data are means ± SEM (n = 3), Student's t-test. *P ≤ 0.05, **P ≤ 0.01, ***P ≤ 0.001.
NLRP3 KO Immortalized murine bone marrow-derived macrophages overexpressing mouse NLRP3-Flag and human ASC-mCerulean were seeded in 96-well plates and incubated for 16 h. Cells were treated with 400 ng/mL ultrapure LPS for 3 h. […] Subsequently, to induce NLRP3 inflammasome activation, cells were treated with 10 μM nigericin for 1.5 h. As controls, to activate the AIM2 inflammasome, cells were transfected with 200 ng of poly(dA:dT) using 0.5 μL lipofectamine 2,000 per well for 4 h. Supernatants were collected to measure cytosolic LDH release by an LDH assay and IL-1ß release by Homogeneous Time Resolved Fluorescence (HTRF). All assays were performed according to the manufacturer's instructions. A two-tailed unpaired t-test was performed using GraphPad Prism 9.

human NLRP3-PYD-NACHT = human NLRP3-PYD-NACHT (Homo sapiens, UniProt Q96P20); assay: SPR competition mode (second ligand injected 120 s after the first); settings: competition with CRID3/MCC950, equimolar, 10-times the kinetic KD of the test compound, either order of injection
Chain of human NLRP3-PYD-NACHT (Q96P20 1-649 limits assumed): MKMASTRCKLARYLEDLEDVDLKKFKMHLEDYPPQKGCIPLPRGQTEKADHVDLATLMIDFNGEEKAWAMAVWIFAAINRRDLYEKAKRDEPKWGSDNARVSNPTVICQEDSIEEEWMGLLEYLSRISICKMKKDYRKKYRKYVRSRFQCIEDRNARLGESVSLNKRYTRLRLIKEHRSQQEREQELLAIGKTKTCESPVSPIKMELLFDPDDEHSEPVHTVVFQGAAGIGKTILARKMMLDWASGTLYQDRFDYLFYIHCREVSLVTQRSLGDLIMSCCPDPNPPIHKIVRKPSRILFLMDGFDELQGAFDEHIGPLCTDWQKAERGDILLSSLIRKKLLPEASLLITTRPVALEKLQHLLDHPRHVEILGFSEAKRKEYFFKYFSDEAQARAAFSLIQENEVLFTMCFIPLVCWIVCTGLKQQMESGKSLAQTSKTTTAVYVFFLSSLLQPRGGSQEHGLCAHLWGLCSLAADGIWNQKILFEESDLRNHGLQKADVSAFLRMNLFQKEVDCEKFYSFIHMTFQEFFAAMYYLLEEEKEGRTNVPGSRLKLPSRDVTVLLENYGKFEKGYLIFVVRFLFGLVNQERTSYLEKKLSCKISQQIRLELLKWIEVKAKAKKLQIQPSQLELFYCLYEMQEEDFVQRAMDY

[2] = target: human NLRP3-PYD-NACHT domain protein (Homo sapiens, UniProt Q96P20); assay: SPR single-cycle kinetic binding to immobilized biotinylated NLRP3-PYD-NACHT; settings: for kd, first-order off-rate constant for dissociation: SPR, 25 °C, 1:1 binding model; for kon: read-out: ka, second-order on-rate constant for association
Chain of human NLRP3-PYD-NACHT domain protein (Q96P20 1-649 limits assumed): as above

[3] = tested on: NLRP3-dependent cell death; assay: LDH release (pyroptosis) after LPS and nigericin, NLRP3-dependent; format: cell-based, murine; settings: LPS + nigericin
[4] = tested on: AIM2-dependent cell death; assay: LDH release (pyroptosis) after LPS and poly(dA:dT), AIM2-dependent; format: cell-based, murine; settings: LPS + poly(dA:dT)
Method: […]. All data are means ± SEM (n = 3), Student's t-test. *P ≤ 0.05, **P ≤ 0.01, ***P ≤ 0.001.
To assess pyroptosis, cytosolic lactate dehydrogenase (LDH) release was measured as a marker of cell lysis. […] […]. All assays were performed according to the manufacturer's instructions. A two-tailed unpaired t-test was performed using GraphPad Prism 9.

AIM2 inflammasome = assay: IL-1β release (HTRF) after LPS priming and poly(dA:dT) transfection, AIM2 inflammasome; settings: poly(dA:dT)
[5] = concentrations of Figure 5 (not given)

| SMILES | non-toxic up to concentration [1] | effect on cytokine (IL-1β) release (NLRP3 inflammasome) | response change indicative of a second binding site (human NLRP3-PYD-NACHT) | Kd [2] | kd, first-order off-rate constant for dissociation [2] | kon [2] | melting point | inhibition of IL-1β release (NLRP3 inflammasome; 10 μM) | NLRP3-dependent cell death (LDH release) ([3]; 10 μM) | AIM2-dependent cell death (LDH release) ([4]; 10 μM) | AIM2-dependent IL-1β release (AIM2 inflammasome; [5]) | some cytotoxicity at concentrations higher than [1] | inhibition of IL-1β release (NLRP3 inflammasome; 2.5 μM) | NLRP3-dependent cell death (LDH release) ([3]; 2.5 μM) | AIM2-dependent cell death (LDH release) ([4]; 2.5 μM) | AIM2-dependent IL-1β release (AIM2 inflammasome; 2.5 μM) | AIM2-dependent IL-1β release (AIM2 inflammasome; 20 μM, data not shown, attributed to cytotoxicity) |
| --- | --- | --- | --- | --- | --- | --- | --- | --- | --- | --- | --- | --- | --- | --- | --- | --- | --- |
| O=C(CCCCC1SCC2NC(=O)NC21)NCc1ccc(S(=O)(=O)NC(=O)Nc2c3c(cc4c2CCC4)CCC3)cc1 (centres unmarked) [Compound 4] | up to 40 μM | did not significantly affect the cytokine release | No significant response change | 611 nM | 0.0088 s⁻¹ | 14000 M⁻¹ s⁻¹ |  |  |  |  |  |  |  |  |  |  |  |
| O=C(CCCC[C@H]1SC[C@H]2NC(=O)N[C@H]21)NCCOCCOCC(=O)NCc1ccc(S(=O)(=O)NC(=O)Nc2c3c(cc4c2CCC4)CCC3)cc1 [Compound 3, N-(2-(2-(2-([4-(N-([1,2,3,5,6,7-Hexahydro-s-indacen-4-yl]carbamoyl)sulfamoyl)benzyl]amino)-2-oxoethoxy)ethoxy)ethyl)-5-([3aR,4R,6aS]-2-oxohexahydro-1H-thieno[3,4-d]imidazol-4-yl)pentanamide] | up to 40 μM | did not significantly affect the cytokine release |  | 1030 nM | 0.022 s⁻¹ | 22000 M⁻¹ s⁻¹ | 140 to 142 °C |  |  |  |  |  |  |  |  |  |  |
| O=C(COCCOCCNC(=O)c1cc2cc3c4c(c2oc1=O)CCCN4CCC3)NCc1ccc(S(=O)(=O)NC(=O)Nc2c3c(cc4c2CCC4)CCC3)cc1 [Compound 1, N-(2-(2-(2-([4-(N-([1,2,3,5,6,7-Hexahydro-s-indacen-4-yl]carbamoyl)sulfamoyl)benzyl]amino)-2-oxoethoxy)ethoxy)ethyl)-11-oxo-2,3,6,7-tetrahydro-1H,5H,11H-pyrano[2,3-f]pyrido[3,2,1-ij]quinoline-10-carboxamide] | up to 10 μM |  |  | 813 nM | 0.01 s⁻¹ | 13000 M⁻¹ s⁻¹ |  | complete inhibition | prevented | but not the AIM2-dependent cell death | did not affect this process |  |  |  |  |  |  |
| O=C(Nc1c2c(cc3c1CCC3)CCC2)NS(=O)(=O)c1ccc(CNC(=O)c2cc3cc4c5c(c3oc2=O)CCCN5CCC4)cc1 [Compound 2] |  |  | No significant response change | 322 nM | 0.0033 s⁻¹ | 10000 M⁻¹ s⁻¹ |  |  |  |  |  | higher than 2.5 μM | complete inhibition | prevented | but not the AIM2-dependent cell death | only a slightly reduced AIM2-dependent release of IL-1β | reduced AIM2-dependent IL-1β release |
| CC(C)(O)c1coc(S(=O)(=O)NC(=O)Nc2c3c(cc4c2CCC4)CCC3)c1 [CRID3/MCC950, reference compound] |  |  |  |  |  |  |  |  |  |  | did not affect this process |  |  |  | but not the AIM2-dependent cell death |  |  |
